“And” between values parts separate entries of the source, which are not always exact repeats. Equal entries are not always repeated.
Tests used:
[1] = molecular target: T1, androgen receptor (AdEasy+rAR, L929 cells) (Rattus norvegicus, UniProt P15207); assay: L929 Androgen Receptor Functional Assay, Adenovirus Transduction; format: cell-based; details: for % Activity, L929 androgen receptor functional assay / EC50: agonist testing; for inhibition at 3 µM: L929, antagonist testing with R1881, 3000 nM; for IC50: antagonist testing with R1881; for % Inhibition, L929 androgen receptor functional assay: antagonist testing with R1881, 3000 nM
T1 construct: expressed in transfected cells; host or cells: L929 cells transduced with adenovirus AdEasy+rAR
T1 sequence (P15207 1-902): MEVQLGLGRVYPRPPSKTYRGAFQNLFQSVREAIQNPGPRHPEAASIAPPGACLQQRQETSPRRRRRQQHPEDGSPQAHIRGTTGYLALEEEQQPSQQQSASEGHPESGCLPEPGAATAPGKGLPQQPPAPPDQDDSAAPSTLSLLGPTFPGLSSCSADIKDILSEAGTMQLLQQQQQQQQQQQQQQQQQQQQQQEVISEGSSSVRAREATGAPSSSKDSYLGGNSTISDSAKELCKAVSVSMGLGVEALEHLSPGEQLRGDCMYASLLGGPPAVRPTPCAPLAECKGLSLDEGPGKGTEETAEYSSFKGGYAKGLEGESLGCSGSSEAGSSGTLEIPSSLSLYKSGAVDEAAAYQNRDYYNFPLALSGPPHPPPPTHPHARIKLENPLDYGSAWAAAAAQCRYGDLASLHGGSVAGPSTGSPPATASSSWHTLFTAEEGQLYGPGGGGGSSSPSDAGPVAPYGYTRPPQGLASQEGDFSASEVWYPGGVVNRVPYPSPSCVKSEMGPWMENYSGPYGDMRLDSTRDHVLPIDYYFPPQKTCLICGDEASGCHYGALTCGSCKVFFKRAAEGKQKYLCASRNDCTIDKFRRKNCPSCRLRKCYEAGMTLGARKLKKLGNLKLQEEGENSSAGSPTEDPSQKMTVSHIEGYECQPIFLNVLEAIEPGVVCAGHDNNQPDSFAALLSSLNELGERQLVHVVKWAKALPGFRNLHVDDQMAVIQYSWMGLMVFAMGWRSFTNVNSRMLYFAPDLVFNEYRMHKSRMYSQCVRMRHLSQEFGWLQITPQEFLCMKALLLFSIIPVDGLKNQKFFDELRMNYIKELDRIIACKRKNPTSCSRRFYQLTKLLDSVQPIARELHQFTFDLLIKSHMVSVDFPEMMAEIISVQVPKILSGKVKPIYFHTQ
Description: L929 cells were plated in 96-well plates at 20,000 cells per well, in DMEM/F12 (GIBCO) containing 10% (v/v) charcoal-treated fetal bovine serum (Hyclone) and lacking phenol red. The plates were then incubated overnight at 37° C. in 5% (v/v) humidified CO2.
Test compound dilutions were prepared in 100% (v/v) DMSO, if necessary. Each dilution was made to 1250× the final desired assay concentration.
First, 2 mL of DMEM/F12 lacking phenol red was pipetted into the wells of a 2-mL 96-well assay block. Next, 4 μL of the 1250× test compound dilutions were pipetted into each well of the assay block. The mixtures within the well were then carefully mixed by pipette.
In a 15 mL or 50 mL sterile centrifuge tube, a 2.5 nM (2.5×) dilution of R1881 (methyl-trienolone) in DMEM/F12 lacking phenol red was prepared.
In a second 15 mL or 50 mL centrifuge tube a solution containing an equal volume of DMEM to the first and an equal volume of 100% (v/v) DMSO to the volume of R1881 used in the first tube was prepared.
In a 15 mL or 50 mL sterile centrifuge tube, a dilution in DMEM/F12 of the adenovirus AdEasy+rAR at an moi of 1:500 per well was prepared.
The medium was removed from the 96-well plates by inversion and dried, inverted, very briefly. As soon as possible after medium removal, 40 μL of the diluted unlabeled test compound was added to each well, in duplicate. To each well designated for antagonist testing was added 40 μL of the 2.5 nM R1881 dilution to the wells for antagonist testing. To each well designated for agonist testing was added 40 μL of the DMSO dilution. Then 20 μL of the diluted adenovirus were added to all wells. The plates were incubated for 48 hours at 37° C. in 5% (v/v) humidified CO2.
To each well was added 100 μL of Steady-Glo luciferase assay substrate (Promega) and the plates were placed on a rotary shaker for 1 min. The plates were then incubated at room temperature in the dark for one hour. The contents of each well were then transferred to a white microtiter plate (Packard) and read on a Luminoskan Ascent (Thermo Lab Systems).
L929 AR percent activity was determined by testing dilutions of the test compound using a concentration of 3000 nM unless otherwise noted. L929 percent inhibition was determined by testing dilutions of the test compound using a concentration of 3000 nM. […] Luciferase activity per well were measured and EC50s and IC50s determined by linear regression.

[2] = test system: testosterone-enhanced ventral prostate and seminal vesicle weights; assay: Ventral Prostate and Seminal Vesicle Weight in vivo Assay; design: species or system rat; details: immature castrated male Sprague Dawley rats, once daily for five days, usually orally 40 mg/kg, with testosterone propionate 2 mg/kg s.c. Also: key: 'active' if the non weight adjusted prostate weight was ≦40 mg or the % Inhibition prostate weight, body weight adjusted was ≧40% @ 2 mg/day dosage; ID50's, if determined, of ≦15 mg/day also indicated an 'active' compound; listed herein as 'inactive' as they did not meet the specified criteria defined above.
Description: Immature (approximately 50 g) castrated male Sprague Dawley rats (Charles River) were treated once daily for five days with test compound (usually given orally at 40 mg/kg in a volume of 0.3 mL, in 30% cyclodextrin or 0.5% methylcellulose vehicle) and with testosterone propionate (given subcutaneously by injection at the nape of the neck at 2 mg/kg, in a volume of 0.1 mL in sesame oil). On the sixth day, the rats were euthanized by asphyxiation in carbon dioxide. Ventral prosatates and seminal vesicles were removed and their wet weights determined.
A test compound was said to be “active” if the non weight adjusted prostate weight was ≦40 mg or the % Inhibition prostate weight, body weight adjusted was ≧40% @ 2 mg/day dosage.

[3] = molecular target: T2, androgen receptor (rat ventral prostate cytosol) (Rattus norvegicus, UniProt P15207); assay: Androgen Receptor Binding Using Rat Ventral Prostate Cytosol; details: for % Inhibition, Androgen Receptor Binding (Rat Cytosol): Concentration 1000 nM; for IC50: read-out: IC50 (nM), Androgen Receptor Binding (Rat Cytosol)
T2 construct: from tissue; host or cells: ventral prostate cytosol of castrated male Sprague Dawley or Wistar rats
T2 sequence (P15207 1-902): T1 sequence (P15207 1-902)
Description: The assay was run on a 96 well plate with each well filled with a total reaction volume 150 μL, of a solution containing 5 pmol androgen receptor LBD (Panvera) or 30 μL of freshly prepared rat cytosol, 0.5 nM [^3H] […] (TED buffer contains 10 mM Tris.HCl pH 7.4, 1 mM sodium molybdate, 1.5 mM EDTA, 1 mM DTT and 10% (v/v) glycerol.)
On day one, the solution containing receptor, tracer and TED buffer was distributed into a 96 well plate. Diluted test compound or control vehicle was then added to individual wells and the plate incubated at 4° C. overnight.
On day two, to each well was then added 20 μL human γ-globulin (ICN 823102), prepared at 25 mg/ml in TE pH 8.0, and 55 μL 40% polyethylene glycol 8000 (J T Baker U222-08), prepared in TE pH 8.0. The plate was incubated at 4° C. for 60 minutes. During incubation, the harvester was rinsed with 10% PEG 8000, prepared in TE pH 8.0, and a GF/C Unifilter-96 was pre-wet with 10% PEG. The binding reaction was filtered, the retentate was washed three times with 10% PEG and dried under vacuum for a couple of minutes, then dried at 50° C. for 5 min and the plate was bottom sealed. Next, 25 μL of Microscint-20 (Packard) was added to the filter wells and the plate was top sealed. The plate wells were then counted on a TopCount (Packard).
Rat Prostate Cytosol Preparation:
Male Sprague Dawley or Wistar rats (Charles River, 200-300 g) were used for each preparation. The day before preparing the cytosol, the rats were castrated using standard surgical procedures.
The rats were euthanized by carbon dioxide asphyxiation. The rat prostates were quickly removed and placed on ice in pre-chilled, pre-weighed 50 mL plastic tubes. No more than five prostates were placed into one tube. The tubes were then weighed and the prostate tissue wet weights calculated.
To the chilled prostate tissue was then added […] of chilled homogenization buffer. The homogenization buffer was freshly prepared by mixing 10 mM Tris.HCl, pH 7.4, 1 mM sodium molybdate, 1.5 mM EDTA, 1 mM dithiothreitol, 10% (v/v) glycerol and 1% protease inhibitor cocktail (Sigma P 8340).
The prostate tissue was homogenized in a cold room using a pre-chilled Polytron PT3000 homogenizer (Brinkmann). Homogenization was performed at a speed setting of 20, three times for 10 sec bursts. The tubes containing the prostate tissue was kept on ice while homogenizing. The homogenate was allowed to rest on ice for 20 sec between bursts.
The homogenate was then placed into pre-chilled 3 mL polycarbonate ultracentrifuge tubes and centrifuged in the TLA-100 rotor of a TL-100 ultracentrifuge for 12 min at 100,000 rpm at 4° C. The resulting supernatant was stored in 1 mL aliquots at −80° C. until needed.
Binding to the androgen receptor was determined according to the protocol described in Example 86 using the above prepared rat cytosol.
% Inhibition was determined by testing dilutions of the test compound (usually duplicates of 10 μM) in the binding assay. Counts per well were measured and percents of inhibition determined. […] Counts per well were measured and IC50s determined by linear regression.

SMILES | % Activity, L929 androgen receptor functional assay ([1]; 3000 nM) | active / inactive: inhibition of testosterone-enhanced prostate weight [2] | other results
CC[S+]([O-])CC(O)c1cc2cc([N+](=O)[O-])c(C(F)(F)F)cc2[nH]1 (mixture of isomers) [Compound 180] | 2% | inactive | –
CC[S+]([O-])CC(C)(O)c1cc2cc(C(F)(F)F)c([N+](=O)[O-])cc2[nH]1 (mixture of isomers) [Compound 230] | 0% | active | –
CSCCC(C)(O)c1cc2cc(Cl)c(C(F)(F)F)cc2[nH]1 (racemic) [Compound 51] | 2% | inactive | –
CCCSCC(C)(O)c1cc2cc(Cl)c(C(F)(F)F)cc2[nH]1 (racemic) [Compound 196] | 13% | inactive | –
CC(O)(CSCc1ccco1)c1cc2cc([N+](=O)[O-])c(C(F)(F)F)cc2[nH]1 (racemic) [Compound 198] | 7% | inactive | –
CC(O)(CS(=O)(=O)CC(F)(F)F)c1cc2cc([N+](=O)[O-])c(C(F)(F)F)cc2[nH]1 (racemic) [Compound 208] | 1% | active | –
CCSCC(C)(O)c1cc2cc([N+](=O)[O-])c(C(F)(F)F)cc2[nH]1 (racemic) [Compound 221] | −1% | inactive | –
CCS(=O)(=O)CC(C)(O)c1cc2cc(C#N)c(C(F)(F)F)cc2n1C (racemic) [Compound 240] | 0% | inactive | –
CC(O)(c1cc2cc([N+](=O)[O-])c(C(F)(F)F)cc2[nH]1)S(=O)(=O)c1ccc(Cl)c(Cl)c1 (racemic) [Compound 255] | – | – | % Inhibition, Androgen Receptor Binding (Rat Cytosol) [3]: 26%
CSC(C)(O)c1cc2cc([N+](=O)[O-])c(C(F)(F)F)cc2[nH]1 (racemic) [Compound 267] | – | inactive | % Activity, L929 androgen receptor functional assay ([1]; 3000 nM, 3 µM): −5% and 0%
CS(=O)(=O)n1c(C2(O)CCN(C(=O)c3ccc(Cl)cc3)CC2)cc2cc(Cl)c(C(F)(F)F)cc21 [Compound 24] | – | – | % Inhibition, Androgen Receptor Binding (Rat Cytosol) [3]: 2%
Cc1ccc(CN2CCC(O)(c3cc4cc([N+](=O)[O-])c(C(F)(F)F)cc4[nH]3)CC2)cc1 [Compound 27] | – | – | IC50 [3]: 3100 nM
OC1(c2cc3cc(Cl)c(C(F)(F)F)cc3[nH]2)CCN(Cc2ccc(F)cc2)CC1 [Compound 28] | – | – | % Inhibition, Androgen Receptor Binding (Rat Cytosol) [3]: −3.4%; IC50 [3]: 7000 nM
COc1cccc(CN2CCC(O)(c3cc4cc(Cl)c(C(F)(F)F)cc4[nH]3)CC2)c1 [Compound 29] | – | – | % Inhibition, Androgen Receptor Binding (Rat Cytosol) [3]: −1.8%; IC50 [3]: 4700 nM
Cc1ccc(CN2CCC(O)(c3cc4cc(Cl)c(C(F)(F)F)cc4[nH]3)CC2)cc1 [Compound 30] | – | – | % Inhibition, Androgen Receptor Binding (Rat Cytosol) [3]: −7.7%; IC50 [3]: 4100 nM
CC(O)(CS(=O)(=O)CC(F)(F)F)c1[nH]c2cc([N+](=O)[O-])c(C(F)(F)F)cc2c1Cl (centres unmarked) [Compound 207] | – | active | inhibition at 3 µM [1]: 101%; EC50 [1]: > 8000 nM; % Activity, L929 androgen receptor functional assay ([1]; 3000 nM, 3 µM): 1% and −1%; IC50 [1]: 492 nM; % Inhibition, L929 androgen receptor functional assay [1]: 101%
CCSCC(C)(O)c1cc2cc(C#N)c(C(F)(F)F)cc2[nH]1 (centres unmarked) [Compound 218, 2-(2-Ethylsulfanyl-1-hydroxy-1-methyl-ethyl)-6-trifluoromethyl-1H-indole-5-carbonitrile] | 0% | inactive | % Inhibition, L929 androgen receptor functional assay ([1]; 3 µM): 62%
CCSCC(O)(CC)c1cc2cc(C#N)c(C(F)(F)F)cc2[nH]1 (centres unmarked) [Compound 223] | – | active | inhibition at 3 µM [1]: 100%; EC50 [1]: > 8000 nM; % Activity, L929 androgen receptor functional assay ([1]; @ 8000 nM): 0 @ 8000 nM %; IC50 [1]: 277 nM

— patent US7282507B2, “Indole derivatives as selective androgen receptor modulators (SARMS)” (Janssen Pharmaceutica N.V., priority 2004, dated 2007)
